Data from PMC5712356, “A New Ala-122-Asn Amino Acid Change Confers Decreased Fitness to ALS-Resistant Echinochloa crus-galli” (Frontiers in Plant Science, 2017).

Test system: T1, ALS (acetolactate synthase; acetohydroxyacid synthase, AHAS; EC 2.2.1.6)
T1 construct: not purified; polyploid species, ALS gene copies not separated
Experiment: acetoin (Westerfeld) colorimetric ALS assay, […] nm, log-logistic fit
Assay type: biochemical, Echinochloa crus-galli
Conditions: sub-population S (no known ALS mutation); Na-pyruvate, MgCl2, TPP, FAD, pH 7.0, 37 °C, 90 min; partially purified leaf extract; read-out: I50

Row | Compound | IC50 [nM]
1 | COCc1cnc(C2=NC(C)(C(C)C)C(=O)N2)c(C(=O)O)c1 (centres unmarked) [Imazamox] | 1740
2 | COc1cc(OC)nc(NC(=O)NS(=O)(=O)c2ncccc2C(=O)N(C)C)n1 [Nicosulfuron] | 19
